These results are taken from PubChem BioAssay AID180 (DTP/NCI, 2004).

The assay relates to BDF1 mice, Adenocarcinoma 755 s.c., tumor weight T/C. Nature of the assay: NCI In Vivo Anticancer Drug Screen. Data for tumor model Adenocarcinoma 755 (subcutaneous) in B6D2F1 (BDF1) mice. The note with it: endpoint: mean tumor weight, schedule: Q01DX011 (ip), higher = larger tumour. The gist of the method: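 In vivo antitumor screen on a transplantable tumor line. Result equals the measure in compound-treated animals divided by the same measure in vehicle controls.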

Setting [1] is: dose: 15.0 mg/kg/injection, vehicle: methylcellulose (MC).
Setting [2] is: dose: 31.0 mg/kg/injection, vehicle: methylcellulose (MC).
Setting [3] is: dose: 62.0 mg/kg/injection, vehicle: methylcellulose (MC).
The mark [4] stands for this setting: dose: 125.0 mg/kg/injection, vehicle: methylcellulose (MC).
Where [5] appears, read: dose: 250.0 mg/kg/injection, vehicle: methylcellulose (MC).
Setting [6] is: dose: 60.0 mg/kg/injection, vehicle: carboxymethylcellulose (CMC).
The mark [7] stands for this setting: dose: 7.5 mg/kg/injection, vehicle: carboxymethylcellulose (CMC).
Where [8] appears, read: dose: 15.0 mg/kg/injection, vehicle: carboxymethylcellulose (CMC).

SMILES strings stand for the structures. Where “and” joins values, the source holds several entries; their conditions need not be identical. Equal entries are not always repeated.

The term T/C denotes the ratio of treated to control. As to `CCCCCn1cnc2c(=S)nc[nH]c21`, the T/C was 94 % of control (dose: 31.0 mg/kg/injection, vehicle: carboxymethylcellulose (CMC)); 78 % of control (dose: 62.0 mg/kg/injection, vehicle: carboxymethylcellulose (CMC)); 43 % of control (dose: 125.0 mg/kg/injection, vehicle: carboxymethylcellulose (CMC)); 10 % of control (dose: 250.0 mg/kg/injection, vehicle: carboxymethylcellulose (CMC)); 6 % of control (dose: 500.0 mg/kg/injection, vehicle: carboxymethylcellulose (CMC)).

`CN(C)CCO`: for the setting “dose: 100.0 mg/kg/injection, vehicle: other”, the T/C is 97 % of control.

For the compound `C[N+](C)(C)c1ncnc2c1ncn2C1CCCO1` (configuration not stated), the T/C by setting is: (dose: 18.7 mg/kg/injection, vehicle: saline) 100 % of control; (dose: 37.5 mg/kg/injection, vehicle: saline) 5 % of control; (dose: 100.0 mg/kg/injection, vehicle: saline) 2 % of control.

On to `CSc1ncc(Br)c(Nc2ccccc2C)n1`, for which the T/C under setting [1] was 94 % of control; the T/C under setting [2] is 87 % of control; the T/C under setting [3] is 110 % of control; the T/C under setting [4] was 117 % of control; the T/C under setting [5] was 107 % of control.

Turning to `CCCOP(=S)(N1CC1C)N1CC1(C)C` (configuration not stated), the T/C reads like this: (dose: 0.5 mg/kg/injection, vehicle: carboxymethylcellulose (CMC)) 68 % of control; (dose: 1.0 mg/kg/injection, vehicle: carboxymethylcellulose (CMC)) 104 % of control; (dose: 12.0 mg/kg/injection, vehicle: carboxymethylcellulose (CMC)) 79 % of control; (dose: 24.0 mg/kg/injection, vehicle: carboxymethylcellulose (CMC)) 61 % of control.

For `Nc1ncnc2c1nc(Br)n2C1CC(O)C(CO)O1` (configuration not stated), the T/C was 89 % of control (dose: 30.0 mg/kg/injection, vehicle: carboxymethylcellulose (CMC)); 89 % of control under setting [6]; 75 % of control (dose: 120.0 mg/kg/injection, vehicle: carboxymethylcellulose (CMC)); 123 % of control (dose: 240.0 mg/kg/injection, vehicle: carboxymethylcellulose (CMC)).

On to `O=C(CCBr)N1CCC(CCC2CCN(C(=O)CCBr)CC2)CC1`, for which the T/C is 94 % of control (dose: 25.0 mg/kg/injection, vehicle: methylcellulose (MC)); 68 % of control (dose: 75.0 mg/kg/injection, vehicle: methylcellulose (MC)); 43 % of control (dose: 225.0 mg/kg/injection, vehicle: methylcellulose (MC)).

For the compound `O=C1C(Cl)=C(Cl)C(=O)C2=C1C1c3ccccc3C2c2ccccc21`, the T/C is, setting by setting: (dose: 37.0 mg/kg/injection, vehicle: carboxymethylcellulose (CMC)) 83 % of control; (dose: 37.5 mg/kg/injection, vehicle: carboxymethylcellulose (CMC)) 117 % of control; (dose: 75.0 mg/kg/injection, vehicle: carboxymethylcellulose (CMC)) 113 % of control and 114 % of control; (dose: 150.0 mg/kg/injection, vehicle: carboxymethylcellulose (CMC)) 89 % of control and 84 % of control; (dose: 300.0 mg/kg/injection, vehicle: carboxymethylcellulose (CMC)) 83 % of control; (dose: 325.0 mg/kg/injection, vehicle: carboxymethylcellulose (CMC)) 41 % of control. The T/C was 33 % of control (dose: 400.0 mg/kg/injection, vehicle: carboxymethylcellulose (CMC)) and 15 % of control (dose: 600.0 mg/kg/injection, vehicle: carboxymethylcellulose (CMC)).

Consider `O=C1C(=O)C(Cl)=C(Cl)C(Cl)=C1Cl`, for which the T/C runs as follows: under setting [7], 78 % of control; under setting [8], 90 % of control; under setting [6], 97 % of control.

Turning to `COc1cc([C@@H]2c3cc4c(cc3[C@H](O)[C@H]3COC(=O)[C@H]23)OCO4)cc(OC)c1OC`, the T/C was 102 % of control (dose: 0.13 mg/kg/injection, vehicle: carboxymethylcellulose (CMC)); 60 % of control and 80 % of control (dose: 0.27 mg/kg/injection, vehicle: carboxymethylcellulose (CMC)); 109 % of control (dose: 0.54 mg/kg/injection, vehicle: carboxymethylcellulose (CMC)); 76 % of control (dose: 0.55 mg/kg/injection, vehicle: carboxymethylcellulose (CMC)); 120 % of control (dose: 1.08 mg/kg/injection, vehicle: carboxymethylcellulose (CMC)); 117 % of control (dose: 1.1 mg/kg/injection, vehicle: carboxymethylcellulose (CMC)).

Consider `CCCCn1cnc2c(SC)nc(N)nc21`, for which the T/C (dose: 3.8 mg/kg/injection, vehicle: carboxymethylcellulose (CMC)) was 95 % of control; the T/C under setting [7] was 49 % of control; the T/C (dose: 9.0 mg/kg/injection, vehicle: carboxymethylcellulose (CMC)) is 79 % of control; the T/C (dose: 13.0 mg/kg/injection, vehicle: carboxymethylcellulose (CMC)) was 69 % of control; the T/C under setting [8] is 30 % of control; the T/C (dose: 20.0 mg/kg/injection, vehicle: carboxymethylcellulose (CMC)) is 44 % of control. Further, the T/C under setting [6] is 3 % of control and 4 % of control; the T/C (dose: 115.0 mg/kg/injection, vehicle: carboxymethylcellulose (CMC)) was 2 % of control and 3 % of control.

In the case of `COc1ccc(CSc2ncnc3nc[nH]c23)cc1`, the T/C is 89 % of control (dose: 1.5 mg/kg/injection, vehicle: carboxymethylcellulose (CMC)); 88 % of control (dose: 3.0 mg/kg/injection, vehicle: carboxymethylcellulose (CMC)); 65 % of control (dose: 6.0 mg/kg/injection, vehicle: carboxymethylcellulose (CMC)); 58 % of control (dose: 7.8 mg/kg/injection, vehicle: methylcellulose (MC)); 13 % of control (dose: 15.6 mg/kg/injection, vehicle: methylcellulose (MC)); 10 % of control (dose: 31.2 mg/kg/injection, vehicle: methylcellulose (MC)).

As to `CCC(C)Cn1cnc2c(SCc3ccccn3)nc(N)nc21` (configuration not stated), the T/C is, setting by setting: (dose: 16.2 mg/kg/injection, vehicle: methylcellulose (MC)) 37 % of control; (dose: 32.5 mg/kg/injection, vehicle: methylcellulose (MC)) 32 % of control; (dose: 65.0 mg/kg/injection, vehicle: methylcellulose (MC)) 23 % of control and 29 % of control.

Regarding `Nc1nc(N)c(N)c(Nc2ccc(Br)cc2)n1`, the T/C reads like this: (dose: 15.0 mg/kg/injection, vehicle: saline) 91 % of control; (dose: 31.0 mg/kg/injection, vehicle: saline) 32 % of control.

For the compound `CCOc1ccccc1Nc1cc(Cl)nc(N)n1`, the T/C is 96 % of control under setting [1]; 66 % of control under setting [2]; 70 % of control under setting [3]; 95 % of control under setting [4]; 70 % of control under setting [5].

On to `O=S(=O)(NCc1ccccc1)c1ncnc2nc[nH]c12`, for which the T/C by setting is: (dose: 12.5 mg/kg/injection, vehicle: carboxymethylcellulose (CMC)) 73 % of control; (dose: 25.0 mg/kg/injection, vehicle: carboxymethylcellulose (CMC)) 3 % of control; (dose: 50.0 mg/kg/injection, vehicle: carboxymethylcellulose (CMC)) 1 % of control.

With `CCCSc1nc(N)nc2c1ncn2C1OC(CO)C(O)C1O` (configuration not stated), the T/C reads like this: (dose: 3.1 mg/kg/injection, vehicle: methylcellulose (MC)) 33 % of control; (dose: 6.25 mg/kg/injection, vehicle: methylcellulose (MC)) 4 % of control; (dose: 12.5 mg/kg/injection, vehicle: methylcellulose (MC)) 2 % of control.
